Like-named read-outs stand apart in the source and are kept apart here.
What was measured:
[1] = test system: Gram-positive bacteria; experiment: Geometric mean MIC and therapeutic index, Gram-positive bacteria; format: cell-based; settings: Gram-positive bacteria
Method: In this study, we aimed to investigate the potential of W5K series peptides for therapeutic use. To evaluate their efficacy for antibacterial therapy, we used the Therapeutic Index (TI) as a measure of their cell selectivity. The TI was calculated as the ratio of the concentration causing 10% hemolysis of human red blood cells (HC10) to the geometric mean minimum inhibitory concentration (GM) of the peptides against both Gram-negative and Gram-positive bacteria. This parameter was used to quantitatively assess the balance between antibacterial potency and cytotoxicity among the W5K derivatives.
(§1) The antibacterial activities of the peptides in Müller-Hinton (MH) broth and modified LYM broth were determined using the standard broth microdilution method as per Clinical and Laboratory Standards Institute (CLSI) guidelines. The LYM broth was prepared with specific components and adjusted to different conditions, including varying concentrations of NaCl and MgCl2, and different pH levels. To prepare the LYM broth, 5.4 mM KCl, 5.6 mM Na2HPO4, 0.5 mM MgSO4, and 1.0 mM sodium citrate were added. Additionally, 0.4 mg of ZnCl2, 2.0 mg of FeCl3·6H2O, 0.1 mg of CuSO4·5H2O, 0.1 mg of MnSO4·H2O, 0.1 mg of Na2B4O7∙10H2O, 700 mg of amino acid mixtures without tryptophan (Takara Bio Inc., San Jose, CA, USA), and 20 mg of L-tryptophan were added per liter of medium. The pH was adjusted to 7.4, and a vitamin mixture (100X, Sigma) and glucose concentration of 2% were added. For different conditions of LYM broth, NaCl concentrations of 300, 200, 150, and 50 mM, MgCl2 concentrations of 2.5, 1.5, and 0.5 mM, and pH levels of 6.5, 5.5, and 4.5 were adjusted. Bacterial strains were incubated in MH broth overnight, regrown, and diluted to a final concentration of 5 × 10^5 CFU/mL. Peptides were added to each well at final concentrations of 50, 25, 12.5, 6.25, 3.13, 1.56, and 0.78 µg/mL, and 99 µL of diluted microbes was loaded into each well of a polypropylene 96-well plate. […] The Morpheus HeatMap software (https://software.broadinstitute.org/morpheus/) was used to display MIC values on a color scale. All experiments were independently repeated three times.

[2] = test system: S. aureus ATCC 33592
Method: The antibacterial and salt-resistant activity of the peptides was tested using Escherichia coli (ATCC 25922), Pseudomonas aeruginosa Migula (ATCC 27853), Acinetobacter sp. (BCRC number 14B0091, BCRC number 14B0097, and BCRC number 14B0100), and Staphylococcus aureus sp. strains (ATCC 25923, ATCC 33591, ATCC 33592, ATCC 33593, and ATCC 6538). All bacteria were obtained from the Food Industry Research and Development Institute (Hsinchu, Taiwan) and cultured in sterilized Müller-Hinton (MH) broth at 37 °C and 200 rpm for 8 h. The inoculum concentrations were determined by measuring the optical density at 600 nm (OD 600 = 1, approximately 10^8 CFU/mL) using an Ultrospec 2100 pro UV-Visible spectrophotometer (Biochrom Ltd., Cambridge, UK) after 8 h of culture.
as §1, with “For different conditions of LYM broth, NaCl concentrations of 300, 200, 150, and 50 mM, MgCl2 concentrations of 2.5, 1.5, and 0.5 mM, and pH levels of 6.5, 5.5, and 4.5 were adjusted.” left out

[3] = test system: A. baumannii 14B00100 (Acinetobacter sp., BCRC number 14B0100)
Procedure, shortened: (§2)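 Broth microdilution per CLSI in Müller-Hinton broth and modified LYM broth (pH 7.4; variants with 50–300 mM NaCl, 0.5–2.5 mM MgCl2, or pH 6.5–4.5). Inoculum 5 × 10^5 CFU/mL; peptides tested at 0.78–50 µg/mL final. MIC read; three independent repeats.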

[4] = test system: S. aureus ATCC 33593
Procedure, shortened: as §2

[5] = test system: S. aureus ATCC 33591
Procedure, shortened: as §2

[6] = LYM broth, 0 mM NaCl, 16 h, 37 °C
[7] = LYM broth, 50 mM NaCl, 16 h, 37 °C
[8] = LYM broth, 100 mM NaCl, 16 h, 37 °C
[9] = LYM broth, 200 mM (NaCl), 16 h, 37 °C
[10] = LYM broth, 300 mM (NaCl), 16 h, 37 °C
[11] = MH broth, 5 × 10^5 CFU/mL, 16 h, 37 °C, repeated three times

Substance: Ac-AKKKKWRKWLKWL-NH2 [Peptide W5K10]
- GM G+ (geometric mean of the MIC values) ([1]; MH broth, MIC >50 µg/mL counted as 100 µg/mL): 9.5 µg/mL
- Therapeutic Index (TI) G+ ([1]; HC10/GM): 11.5
- MIC [2, 6]: 3.13 µg/mL
- MIC ([2]; LYM broth, 0.5 mM MgCl2): 3.13 µg/mL
- MIC ([2]; LYM broth, 1.5 mM MgCl2): 3.13 µg/mL
- MIC ([2]; LYM broth, 2.5 mM MgCl2): 3.13 µg/mL
- MIC [2, 7]: 6.25 µg/mL
- MIC [2, 8]: 6.25 µg/mL
- MIC [2, 9]: 12.5 µg/mL
- MIC [2, 10]: 25 µg/mL
- MIC ([2]; LYM broth, pH 4.5): 3.13 µg/mL
- MIC ([2]; LYM broth, pH 5.5): 3.13 µg/mL
- MIC ([2]; LYM broth, pH 6.5): 3.13 µg/mL
- MIC [2, 11]: 12.5 µg/mL
- MIC [3, 6]: 1.56 µg/mL
- MIC ([3]; LYM broth, 0.5 mM MgCl2): 1.56 µg/mL
- MIC ([3]; LYM broth, 1.5 mM MgCl2): 1.56 µg/mL
- MIC ([3]; LYM broth, 2.5 mM MgCl2): 3.13 µg/mL
- MIC [3, 7]: 1.56 µg/mL
- MIC [3, 8]: 1.56 µg/mL
- MIC [3, 9]: 1.56 µg/mL
- MIC [3, 10]: 3.13 µg/mL
- MIC ([3]; LYM broth, pH 4.5): 1.56 µg/mL
- MIC ([3]; LYM broth, pH 5.5): 1.56 µg/mL
- MIC ([3]; LYM broth, pH 6.5): 1.56 µg/mL
- MIC [3, 11]: 3.13 µg/mL
- MIC [4, 6]: 3.13 µg/mL
- MIC ([4]; LYM broth, 0.5 mM MgCl2): 3.13 µg/mL
- MIC ([4]; LYM broth, 1.5 mM MgCl2): 3.13 µg/mL
- MIC ([4]; LYM broth, 2.5 mM MgCl2): 6.25 µg/mL
- MIC [4, 7]: 6.25 µg/mL
- MIC [4, 8]: 6.25 µg/mL
- MIC [4, 9]: 12.5 µg/mL
- MIC [4, 10]: 25 µg/mL
- MIC ([4]; LYM broth, pH 4.5): 6.25 µg/mL
- MIC ([4]; LYM broth, pH 5.5): 3.13 µg/mL
- MIC ([4]; LYM broth, pH 6.5): 3.13 µg/mL
- MIC [4, 11]: 12.5 µg/mL
- MIC [5, 6]: 3.13 µg/mL
- MIC ([5]; LYM broth, 0.5 mM MgCl2): 3.13 µg/mL
- MIC ([5]; LYM broth, 1.5 mM MgCl2): 3.13 µg/mL
- MIC ([5]; LYM broth, 2.5 mM MgCl2): 6.25 µg/mL
- MIC [5, 7]: 6.25 µg/mL
- MIC [5, 8]: 6.25 µg/mL
- MIC [5, 9]: 12.5 µg/mL
- MIC [5, 10]: 25 µg/mL
- MIC ([5]; LYM broth, pH 4.5): 6.25 µg/mL
- MIC ([5]; LYM broth, pH 5.5): 3.13 µg/mL
- MIC ([5]; LYM broth, pH 6.5): 3.13 µg/mL
- MIC [5, 11]: 12.5 µg/mL

Source: publication PMC12649549, “Sequence Permutation Generated Lysine and Tryptophan-Rich Antimicrobial Peptides with Enhanced Therapeutic Index” (Antibiotics, 2025)
